Data from patent publication US20250213707A1, “COMPOUND FOR INCREASING EFFICACY OF ONCOLYTIC VIRUSES” (ABLEVIA BIOTECH GMBH, priority 2022, published 2025).
Ends that are not written are not given here.

How the values were obtained:
[1] = tested on: polyclonal antibody ab6982; assay: Epitope mapping of polyclonal antibody ab6982 against cyclic peptides of Ad5 fiber and hexon (peptide array); format: binding, rabbits
Source text: Polyclonal antibody ab6982 (Abcam) was generated by immunizing rabbits with purified AdV. It reacts with all capsid proteins of Ad5 including hexon, fiber and penton. It was shown that the antibody neutralizes Ad5 infection in a bioassay at 1000 adenovirus 5 particles/ml, a 50% inactivation of the adenovirus can be achieved at a 1/25,000 dilution of the antibody. In order to identify epitopic regions that could contain peptides for ab6982 paratope binding, the antibody was mapped against the sequences of fiber (NCBI Reference Sequence: AP 000226.1) and hexon protein (GenBank: BAG48782.1). […] The binding signal of this antibody to the array yielded several peptides that were aligned and clustered against the sequence of the protein. The peptide clusters were named cluster1-7 (fiber protein) and clusters8-16 (hexon protein) according to their ranked order of cyclic peptide hits (i.e. cluster contains the strongest binders, cluster2 the second strongest etc.). Below are the aligments of the corresponding peptides that bind to polyclonal antibody ab6982.

[2] = tested on: IgG from human donors (anti-AAV antibodies); assay: Screen for anti-AAV antibodies in human sera, 2452 linear 15-amino-acid AAV peptides on microarrays (Table 1); format: binding; design: key to group I: X: the deduplicated aggregate of the respective top 10 peptide hits for each donor was compiled and designated as group I; key to group II: X: the deduplicated aggregate of the respective top 25 peptide hits for each donor was compiled and designated as group II; key to group III: X: the deduplicated aggregate of the respective top 50 peptide hits for each donor was compiled and designated as group III; conditions: human donor IgG binding to linear 15-amino-acid AAV peptides on microarray, fluorescence; for group II: membership in deduplicated aggregate of top 25 peptide hits for each donor; for group III: membership in deduplicated aggregate of top 50 peptide hits for each donor
How it was run: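 Protein G-purified IgG from human donor blood incubated with microarrays of 2452 linear 15-mer peptides from 16 AAVs; binding read by fluorescence. Background-subtracted signals ranked per donor, with top 10, 25, 50 and 250 hits pooled and deduplicated into groups I-IV.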

[3] = cyclic peptides of hexon protein (clusters 8-16)
[4] = cyclic peptides of fiber protein (clusters 1-7)

Row | Substance | antibody binding signal ranking from the microarray experiment [1, 3] | group II [2] | group III [2] | antibody binding signal ranking from the microarray experiment [1, 4] | group I ([2]; membership in deduplicated aggregate of top 10 peptide hits for each donor)
1 | 298 (TRYFSMW) [compound 298] | 073 | – | – | – | –
2 | 299 (GDRTRYF) [compound 299] | 080 | – | – | – | –
3 | 300 (DSIGDRTRYF) [compound 300] | 095 | – | – | – | –
4 | 301 (DSIGDRTRYFSMW) [compound 301] | 100 | – | – | – | –
5 | 302 (GDRTRYFSMW) [compound 302] | 101 | – | – | – | –
6 | 303 (DRMYSFFRNF) [compound 303] | 072 | – | – | – | –
7 | 304 (SYKDRMYSFFRNF) [compound 304] | 099 | – | – | – | –
8 | 305 (NYNIGYQGFY) [compound 305] | 106 | – | – | – | –
9 | 306 (ANYNIGYQGF) [compound 306] | 122 | – | – | – | –
10 | 307 (MLANYNIGYQGFY) [compound 307] | 123 | – | – | – | –
11 | 308 (IGYQGFY) [compound 308] | 136 | – | – | – | –
12 | 309 (FLVQMLANYNIGY) [compound 309] | 184 | – | – | – | –
13 | 310 (NIGYQGF) [compound 310] | 187 | – | – | – | –
14 | 311 (QMLANYNIGYQGF) [compound 311] | 190 | – | – | – | –
15 | ADPPTTFNQAKLAS [SEQ ID NO: 2009] | – | X | X | 060 | –
16 | ADPPTTFNQSKLNS [SEQ ID NO: 2024] | – | X | X | 032 | –
17 | AGDNVDYSSVMLTS [SEQ ID NO: 2010] | – | X | X | 065 | –
18 | ANPGIAMATHKDDE [SEQ ID NO: 2060] | – | X | X | 100 | –
19 | APGKKRPVEHSPVE (REGION 1..14: note = peptide derived from viral capsid protein) [SEQ ID NO: 1999] | – | X | X | 061 | X
20 | DIYYQGPIWAKIPH (REGION 1..14: note = peptide derived from viral capsid protein) [SEQ ID NO: 2040] | – | X | X | 102 | –
21 | DIYYQGPIWAKVPH [SEQ ID NO: 2030] | – | X | X | 030 | –
22 | DKFFPMSGVMIFGK (not fully specified) [SEQ ID NO: 2044] | – | X | X | 147 | –
23 | EEEIKATNPVATER [SEQ ID NO: 2045] | – | X | X | 148 | –

Row | Substance | antibody binding signal ranking from the microarray experiment [1, 3] | group II [2] | group III [2] | antibody binding signal ranking from the microarray experiment [1, 4] | group I ([2]; membership in deduplicated aggregate of top 10 peptide hits for each donor)
24 | EEEIKTTNPVATES (REGION 1..14: note = peptide derived from viral capsid protein) [SEQ ID NO: 2014] | – | X | X | 123 | –
25 | EFAWPGASSWALNG (REGION 1..14: note = peptide derived from viral capsid protein) [SEQ ID NO: 2015] | – | X | X | 126 | –
26 | EGADGVGNASGNWH (REGION 1..14: note = peptide derived from viral capsid protein) [SEQ ID NO: 2046] | – | X | X | 169 | –
27 | EGASYQVPPQPNGM [SEQ ID NO: 2061] | – | X | X | 108 | –
28 | EYRTTRPIGTRYLT [SEQ ID NO: 2062] | – | X | X | 134 | –
29 | FEKVPFHSMYAHSQ (REGION 1..14: note = peptide derived from viral capsid protein) [SEQ ID NO: 2031] | – | X | X | 058 | –
30 | FSAARINSFLTQYS [SEQ ID NO: 2032] | – | X | X | 059 | –
31 | GESESVPDPQPIGE [SEQ ID NO: 2058] | – | X | X | 091 | –
32 | GGQMATNNQSLALG [SEQ ID NO: 2021] | – | X | X | 020 | –
33 | GQTGESESVPDPQP [SEQ ID NO: 2059] | – | X | X | 095 | –
34 | HKDDEEKFFPQSGV (REGION 1..14: note = peptide derived from viral capsid protein) [SEQ ID NO: 2002] | – | X | X | 150 | –
35 | HSQSLDRLMNPLLD [SEQ ID NO: 2051] | – | X | X | 008 | –
36 | HSQSLDRMMNPLLD [SEQ ID NO: 2033] | – | X | X | 062 | –
37 | IEMRAAPGGNAVDA [SEQ ID NO: 2052] | – | X | X | 014 | –
38 | KGEPVNEADAAALE (REGION 1..14: note = peptide derived from viral capsid protein) [SEQ ID NO: 2003] | – | X | X | 153 | –
39 | KKRILEPLGLVEEA [SEQ ID NO: 2023] | – | X | X | 023 | –
40 | KKRILEPLGLVEEG [SEQ ID NO: 2034] | – | X | X | 066 | –
41 | KNTPVPADPPTTFN (REGION 1..14: note = peptide derived from viral capsid protein) [SEQ ID NO: 2011] | – | X | X | 076 | –
42 | KRLNFEEDTGAGDG [SEQ ID NO: 2053] | – | X | X | 022 | –
43 | KRVLEPLGLVESPV [SEQ ID NO: 2012] | – | X | X | 085 | –
44 | KSNNVEFAVNTEGV [SEQ ID NO: 2016] | – | X | X | 009 | –
45 | KSTSVDFAVNTEGV [SEQ ID NO: 2025] | – | X | X | 039 | –
46 | LFNIQVKEVTTNDG (REGION 1..14: note = peptide derived from viral capsid protein) [SEQ ID NO: 2047] | – | X | X | 172 | –
